Measured values taken from patent publication EP4786487A1, “PEPTIDE” (Peptidream Inc, priority 2023, dated 2025).
Read-outs that look alike come from different tables or passages of the source. Starred links: 1 amine or outer side, 2 acyl side, 3 side chain; linkers in the order of their positions; H or OH if unused. Positions of bridges follow the written chain, without caps; N, C: chain ends. Non-standard residues stand in square brackets, D forms with d. Residues, ends and D or L forms follow the SMILES beside them. Groups on a side chain read outwards from the residue. *: point of attachment. Phe(3-OCH2COOH) = N[C@@H](Cc1cccc(OCC(=O)O)c1)C(=O)O; Piperidine(4-CH2CH2CONH2) = NC(=O)CCC1CCN(*)CC1; Phe(4-COOH) = N[C@@H](Cc1ccc(C(=O)O)cc1)C(=O)O; Piperazinyl(4-CH2COOH) = O=C(O)CN1CCN(*)CC1; Gly(decyl) = CCCCCCCCCC[C@H](N)C(=O)O; Gly(N(CH2)3COOH) = O=C(O)CCCNCC(=O)O; X1 = CCCCCCC[C@H](N[*:1])C(=O)[*:2]; NMeCha = CN[C@@H](CC1CCCCC1)C(=O)O; NMeF = CN[C@@H](Cc1ccccc1)C(=O)O; 4Pal = N[C@@H](Cc1ccncc1)C(=O)O; NMeE = CN[C@@H](CCC(=O)O)C(=O)O; Cha = N[C@@H](CC1CCCCC1)C(=O)O; hSer = N[C@@H](CCO)C(=O)O; NMeA = CN[C@@H](C)C(=O)O; X9 = NC(=O)CC1CCN(*)CC1; CO = O=C([*:1])[*:2]; Sar = CNCC(=O)O; Propyl = CCC*

Columns and labels:
Type in all cases: cell-based
GDF-11 = target: T1, GDF-11 (Homo sapiens, UniProt O95390); assay: Reporter gene assay for myostatin signaling in HepG2 cell line, Evaluation Procedure (1), GDF-11 inhibition; settings: read-out: IC50 (Luciferase) GDF-11 HepG2
T1 construct: purchased R&D systems 1958-GD-G8/CF
T1 sequence (O95390 299-407): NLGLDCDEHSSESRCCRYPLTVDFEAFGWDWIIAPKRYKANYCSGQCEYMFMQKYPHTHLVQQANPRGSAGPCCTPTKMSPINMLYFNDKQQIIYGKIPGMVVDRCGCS
Summary of the method: (§1)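 HepG2 cells transfected with pGL3(CAGA)12-luciferase reporter, serum-starved in 0.1% BSA medium, then stimulated with myostatin or GDF-11 plus 4-fold peptide dilutions (0.006–100 nmol/L for myostatin, 0.12–2000 nmol/L for GDF-11) for 20–24 h at 37 °C. Luminescence read with One-Glo; IC50 calculated.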

Myostatin [1] = assay: Reporter gene assay for myostatin signaling in HepG2 cell line, Evaluation Procedure (1), myostatin inhibition; settings: GDF-11 IC50 versus Myostatin IC50
Summary of the method: as §1

Myostatin [2] = target: T2, Myostatin (Homo sapiens, UniProt O14793); assay: as above; settings: read-out: IC50 (Luciferase) Myostatin HepG2
T2 construct: active myostatin (also called mature myostatin) is a homodimer consisting of two C-terminal growth factor domains; purchased R&D systems 788-G8/CF
T2 sequence (O14793 267-375): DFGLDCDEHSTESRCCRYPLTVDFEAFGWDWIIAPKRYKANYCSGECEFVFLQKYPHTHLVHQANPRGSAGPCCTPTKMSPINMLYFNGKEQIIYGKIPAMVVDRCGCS
Summary of the method: as §1

| Compound | IC50 (GDF-11; Method A: GDF-11 10 ng/mL) | IC50 (Myostatin [2]; Method A: Myostatin 10 ng/mL) | IC50 (GDF-11; Method B: GDF-11 1 ng/mL) | IC50 (Myostatin [2]; Method B: Myostatin 1 ng/mL) | Selectivity (Myostatin [1]; Method A) | Selectivity (Myostatin [1]; Method B) |
| --- | --- | --- | --- | --- | --- | --- |
| CCCCCCC[C@@H]1NC(=O)[C@H](CC2CCCCC2)NC(=O)[C@H](CCCNC(=N)N)NC(=O)[C@H](Cc2ccc(C(=O)O)cc2)NC(=O)[C@H](CCCCNC(=O)N2CCN(CC(=O)O)CC2)NC(=O)[C@H]2CCCN2C(=O)[C@H]([C@@H](C)CC)NC(=O)[C@H](CC2CCCCC2)N(C)C(=O)[C@H](Cc2ccc(O)cc2)NC(=O)[C@H](Cc2c[nH]c3ccccc23)NC(=O)[C@@H](CCC(=O)O)NC(=O)[C@H](C)NC(=O)CSC[C@H](C(=O)N2CCN(CC(=O)O)CC2)NC(=O)[C@H](Cc2ccccc2)N(C)C(=O)[C@H](C)N(C)C1=O [Myostatin_99_v244] ({CH2CO}-A[dE]WY[NMeCha]I[dP]K([CO-Piperazinyl(4-CH2COOH)])[Phe(4-COOH)]R[Cha][X1][NMeA][NMeF][dC]-{Piperazinyl(4-CH2COOH)}; thioether N-15) | 13600 nM | 17.7 nM |  |  | 771 |  |
| CCCCCCC[C@@H]1NC(=O)[C@H](CC2CCCCC2)N(C)C(=O)[C@H](CCCNC(=N)N)NC(=O)[C@H](Cc2ccc(C(=O)O)cc2)NC(=O)[C@H](CCCCNC(=O)N2CCN(CC(=O)O)CC2)NC(=O)[C@H]2CCCN2C(=O)[C@H]([C@@H](C)CC)NC(=O)[C@H](CC2CCCCC2)N(C)C(=O)[C@H](Cc2ccc(O)cc2)NC(=O)[C@H](Cc2c[nH]c3ccccc23)NC(=O)[C@@H](CCC(=O)O)NC(=O)[C@H](C)NC(=O)CSC[C@H](C(=O)N2CCN(CC(=O)O)CC2)NC(=O)[C@H](Cc2ccccc2)N(C)C(=O)[C@H](C)N(C)C1=O [Myostatin_99_v248] ({CH2CO}-A[dE]WY[NMeCha]I[dP]K([CO-Piperazinyl(4-CH2COOH)])[Phe(4-COOH)]R[NMeCha][X1][NMeA][NMeF][dC]-{Piperazinyl(4-CH2COOH)}; thioether N-15) | 3530 nM | 21.5 nM |  |  | 164 |  |
| CCCCCCC[C@@H]1NC(=O)[C@H](CC2CCCCC2)NC(=O)[C@H](CCCNC(=N)N)NC(=O)[C@H](Cc2ccc(C(=O)O)cc2)NC(=O)[C@H](CCCCNC(=O)N2CCN(CC(=O)O)CC2)NC(=O)CN(C)C(=O)[C@H]([C@@H](C)CC)NC(=O)[C@H](CC2CCCCC2)N(C)C(=O)[C@H](Cc2ccc(O)cc2)NC(=O)[C@H](Cc2c[nH]c3ccccc23)NC(=O)[C@@H](CCC(=O)O)NC(=O)[C@H](C)NC(=O)CSC[C@H](C(=O)N2CCN(CC(=O)O)CC2)NC(=O)[C@H](Cc2ccccc2)N(C)C(=O)[C@H](C)N(C)C1=O [Myostatin_99_v249] ({CH2CO}-A[dE]WY[NMeCha]I[Sar]K([CO-Piperazinyl(4-CH2COOH)])[Phe(4-COOH)]R[Cha][X1][NMeA][NMeF][dC]-{Piperazinyl(4-CH2COOH)}; thioether N-15) | 119 nM | 0.5 nM |  |  | 237 |  |
| CCCCCCC[C@@H]1NC(=O)[C@H](Cc2ccccc2)N(C)C(=O)[C@H](CCCNC(=N)N)NC(=O)[C@H](Cc2ccc(C(=O)O)cc2)NC(=O)[C@H](Cc2cccc(OCC(=O)O)c2)NC(=O)[C@H]2CCCN2C(=O)[C@H]([C@@H](C)CC)NC(=O)[C@H](CC2CCCCC2)N(C)C(=O)[C@H](Cc2ccc(O)cc2)NC(=O)[C@H](Cc2c[nH]c3ccccc23)NC(=O)[C@@H](CCC(=O)O)NC(=O)[C@H](C)NC(=O)CSC[C@H](C(=O)N2CCN(CC(=O)O)CC2)NC(=O)[C@H](Cc2ccccc2)N(C)C(=O)[C@H](C)N(C)C1=O [Myostatin_99_v253] ({CH2CO}-A[dE]WY[NMeCha]I[dP][Phe(3-OCH2COOH)][Phe(4-COOH)]R[NMeF][X1][NMeA][NMeF][dC]-{Piperazinyl(4-CH2COOH)}; thioether N-15) | 2440 nM | 5.7 nM |  |  | 428 |  |
| CCCCCCCCCC[C@@H]1NC(=O)[C@H](Cc2ccccc2)N(C)C(=O)[C@H](CCCNC(=N)N)NC(=O)[C@H](Cc2ccc(C(=O)O)cc2)NC(=O)[C@H](Cc2cccc(OCC(=O)O)c2)NC(=O)[C@H]2CCCN2C(=O)[C@H]([C@@H](C)CC)NC(=O)[C@H](Cc2ccccc2)N(C)C(=O)[C@H](Cc2ccc(O)cc2)NC(=O)[C@H](Cc2c[nH]c3ccccc23)NC(=O)[C@H](C)NC(=O)[C@H](C)NC(=O)CSC[C@H](C(=O)N2CCN(CC(=O)O)CC2)NC(=O)[C@H](Cc2ccccc2)N(C)C(=O)[C@H](CCC(=O)O)N(C)C1=O [Myostatin_99_v309] ({CH2CO}-AAWY[NMeF]I[dP][Phe(3-OCH2COOH)][Phe(4-COOH)]R[NMeF][Gly(decyl)][NMeE][NMeF][dC]-{Piperazinyl(4-CH2COOH)}; thioether N-15) |  |  | 25 nM | 0.09 nM |  | 287 |

More lines, main results first:

| IC50 (GDF-11; Method A: GDF-11 10 ng/mL) | IC50 (Myostatin [2]; Method A: Myostatin 10 ng/mL) | IC50 (GDF-11; Method B: GDF-11 1 ng/mL) | IC50 (Myostatin [2]; Method B: Myostatin 1 ng/mL) | Compound | Selectivity (Myostatin [1]; Method A) | Selectivity (Myostatin [1]; Method B) |
| --- | --- | --- | --- | --- | --- | --- |
| 8370 nM | 57.1 nM |  |  | CCCOCC[C@@H]1NC(=O)[C@H](Cc2ccccc2)N(C)C(=O)[C@H](CCCNC(=N)N)NC(=O)[C@H](Cc2ccc(C(=O)O)cc2)NC(=O)[C@H](Cc2ccncc2)NC(=O)CN(C)C(=O)[C@H]([C@@H](C)CC)NC(=O)[C@H](Cc2ccccc2)N(C)C(=O)[C@H](Cc2ccc(O)cc2)NC(=O)[C@H](Cc2c[nH]c3ccccc23)NC(=O)[C@H](C)NC(=O)CN(CCCC(=O)O)C(=O)CSC[C@H](C(=O)O)NC(=O)[C@H](Cc2ccccc2)N(C)C(=O)[C@H](C)N(C)C1=O [Myostatin_99_v230] ({CH2CO}-[Gly(N(CH2)3COOH)]AWY[NMeF]I[Sar][4Pal][Phe(4-COOH)]R[NMeF][hSer](Propyl)[NMeA][NMeF][dC]-OH; thioether N-15) | 147 |  |
| 3310 nM | 3.6 nM |  |  | CCCCCCC[C@@H]1NC(=O)[C@H](Cc2ccccc2)N(C)C(=O)[C@H](CCCNC(=N)N)NC(=O)[C@H](Cc2ccc(C(=O)O)cc2)NC(=O)[C@H](Cc2cccc(OCC(=O)O)c2)NC(=O)[C@H]2CCCN2C(=O)[C@H]([C@@H](C)CC)NC(=O)[C@H](Cc2ccccc2)N(C)C(=O)[C@H](Cc2ccc(O)cc2)NC(=O)[C@H](Cc2c[nH]c3ccccc23)NC(=O)[C@@H](CCC(=O)O)NC(=O)[C@H](C)NC(=O)CSC[C@H](C(=O)N2CCN(CC(=O)O)CC2)NC(=O)[C@H](Cc2ccccc2)N(C)C(=O)[C@H](C)N(C)C1=O [Myostatin_99_v254] ({CH2CO}-A[dE]WY[NMeF]I[dP][Phe(3-OCH2COOH)][Phe(4-COOH)]R[NMeF][X1][NMeA][NMeF][dC]-{Piperazinyl(4-CH2COOH)}; thioether N-15) | 921 |  |
| 191 nM | 1.6 nM |  |  | CCCCCCC[C@@H]1NC(=O)[C@H](Cc2ccccc2)N(C)C(=O)[C@H](CCCNC(=N)N)NC(=O)[C@H](Cc2ccc(C(=O)O)cc2)NC(=O)[C@H](Cc2cccc(OCC(=O)O)c2)NC(=O)CN(C)C(=O)[C@H]([C@@H](C)CC)NC(=O)[C@H](CC2CCCCC2)N(C)C(=O)[C@H](Cc2ccc(O)cc2)NC(=O)[C@H](Cc2c[nH]c3ccccc23)NC(=O)[C@@H](CCC(=O)O)NC(=O)[C@H](C)NC(=O)CSC[C@H](C(=O)N2CCN(CC(=O)O)CC2)NC(=O)[C@H](Cc2ccccc2)N(C)C(=O)[C@H](C)N(C)C1=O [Myostatin_99_v255] ({CH2CO}-A[dE]WY[NMeCha]I[Sar][Phe(3-OCH2COOH)][Phe(4-COOH)]R[NMeF][X1][NMeA][NMeF][dC]-{Piperazinyl(4-CH2COOH)}; thioether N-15) | 119 |  |
|  |  | 56.8 nM | 0.1 nM | CCCCCCC[C@@H]1NC(=O)[C@H](Cc2ccccc2)N(C)C(=O)[C@H](CCCNC(=N)N)NC(=O)[C@H](Cc2ccc(C(=O)O)cc2)NC(=O)[C@H](Cc2cccc(OCC(=O)O)c2)NC(=O)CN(C)C(=O)[C@H]([C@@H](C)CC)NC(=O)[C@H](Cc2ccccc2)N(C)C(=O)[C@H](Cc2ccc(O)cc2)NC(=O)[C@H](Cc2c[nH]c3ccccc23)NC(=O)[C@H](C)NC(=O)[C@H](C)NC(=O)CSC[C@H](C(=O)N2CCC(CC(N)=O)CC2)NC(=O)[C@H](Cc2ccccc2)N(C)C(=O)[C@H](CCC(=O)O)N(C)C1=O [Myostatin_99_v315] ({CH2CO}-AAWY[NMeF]I[Sar][Phe(3-OCH2COOH)][Phe(4-COOH)]R[NMeF][X1][NMeE][NMeF][dC]-X9; thioether N-15) |  | 541.6 |
|  |  | 89.7 nM | 0.37 nM | CCCCCCC[C@@H]1NC(=O)[C@H](Cc2ccccc2)N(C)C(=O)[C@H](CCCNC(=N)N)NC(=O)[C@H](Cc2ccc(C(=O)O)cc2)NC(=O)[C@H](Cc2cccc(OCC(=O)O)c2)NC(=O)CN(C)C(=O)[C@H]([C@@H](C)CC)NC(=O)[C@H](Cc2ccccc2)N(C)C(=O)[C@H](Cc2ccc(O)cc2)NC(=O)[C@H](Cc2c[nH]c3ccccc23)NC(=O)[C@H](C)NC(=O)[C@H](C)NC(=O)CSC[C@H](C(=O)N2CCC(CCC(N)=O)CC2)NC(=O)[C@H](Cc2ccccc2)N(C)C(=O)[C@H](CCC(=O)O)N(C)C1=O [Myostatin_99_v316] ({CH2CO}-AAWY[NMeF]I[Sar][Phe(3-OCH2COOH)][Phe(4-COOH)]R[NMeF][X1][NMeE][NMeF][dC]-{Piperidine(4-CH2CH2CONH2)}; thioether N-15) |  | 239.8 |
